Experimental data from US9278134B2, “Dual functioning ionic liquids and salts thereof” (priority 2008, dated 2016).

Test: Thermal decomposition onset (T5% onset) by TGA
Settings: not given
`CCCC[PH](CCCC)(CCCC)CC(=O)Oc1ccc(NC(C)=O)cc1` [Example 38, (2-(4-acetamidophenoxy)-2-oxoethyl)tributylphosphonium Docusate] gave a T5%onset of 227 °C.
`CCCCC(CC)COC(=O)CC(C(=O)OCC(CC)CCCC)S(=O)(=O)O.CN[C@@H](C)[C@H](O)c1ccccc1` (centres unmarked) [Example 59, Ephedrinium Docusate] gave a T5%onset of 238 °C.
In the case of `CCN(CC)CC(=O)Nc1c(C)cccc1C.CN[C@@H](C)[C@H](O)c1ccccc1.O=C(O)c1ccccc1O` [Example 23, Ephedrinium-lidocaine Salicylate], the T5%onset is reported as 149 °C.
In the case of `CCCCC(CC)COC(=O)CC(C(=O)OCC(CC)CCCC)S(=O)(=O)O.COc1cccc(C2(O)CCCCC2CN(C)C)c1` (centres unmarked) [Example 51, Tramadolium Docusate], the T5%onset is reported as 226 °C.
Work on `CN[C@@H](C)[C@H](O)c1ccccc1.O=C(O)c1ccccc1O` [Eph:Sal 1:1, Ephedrinium Salicylate] yielded a T5%onset of 161 °C.
With `COc1cccc(C2(O)CCCCC2CN(C)C)c1.O=C(O)c1ccccc1O` (centres unmarked) [Example 47, Tramadolium Salicylate] the T5%onset was 220 °C.
Compound `CC(CN1c2ccccc2Sc2ccccc21)N(C)C.CCCCC(CC)COC(=O)CC(C(=O)OCC(CC)CCCC)S(=O)(=O)O.CN[C@@H](C)[C@H](O)c1ccccc1` (centres unmarked) [Example 27, Promethazine-ephedrinium Docusate 1:1:1] has a T5%onset of 164 °C.
Work on Benzethonium Salicylate [Example 53] yielded a T5%onset of 180 °C.
In the case of `COc1cccc(C2(O)CCCCC2CN(C)C)c1.Cc1ccc(Cl)c(Nc2ccccc2C(=O)O)c1Cl` (centres unmarked) [Example 50, Tramadolium Meclofenamate], the T5%onset is reported as 172 °C.
`CC(C)Cc1ccc(C(C)C(=O)O)cc1.CCN(CC)CCNC(=O)c1ccc(N)cc1` [Example 62, Procainamide Ibuprofenate] gave a T5%onset of 182 °C.
Work on `CC(C)=CCC/C(C)=C/COC(=O)CCC(=O)O` [Example 46, 2-Hydroxy-N,N,N-trimethylethanaminium (E)-4-(3,7-dimethylocta-2,6-dienyloxy)-4-oxobutanoate] yielded a T5%onset of 170 °C.
In the case of `CCCCCCCCCCCCCCCC[n+]1ccccc1` [CetPy:Sal 1:1, Cetylpyridinium Salicylate], the T5%onset is reported as 206 °C.
Compound `CC(CN1c2ccccc2Sc2ccccc21)N(C)C.CCCCC(CC)COC(=O)CC(C(=O)OCC(CC)CCCC)S(=O)(=O)O` (centres unmarked) [Example 60, Promethazine Docusate] has a T5%onset of 246 °C.
`CC(=O)Nc1ccc(OC(=O)C[N+]2(C)CCCC2)cc1` [Example 36, 1-(2-(4-acetamidophenoxy)-2-oxoethyl)-1-methylpyrrolidinium Docusate] gave a T5%onset of 233 °C.
With `CC(CN1c2ccccc2Sc2ccccc21)N(C)C.CN[C@@H](C)[C@H](O)c1ccccc1.O=C(O)c1ccccc1O` (centres unmarked) [Example 29, Promethazine-ephedrinium Salicylate] the T5%onset was 151 °C.
`CC(C)Cc1ccc(C(C)C(=O)O)cc1.CN[C@@H](C)[C@H](O)c1ccccc1` (centres unmarked) [Example 57, Ephedrinium Ibuprofenate] showed a T5%onset of 238 °C.
For “Cetylpyridinium Salicylate-cinnamate [CetPySalCinnH]”, the T5%onset was 162 °C.
`CCCCC(CC)COC(=O)CC(C(=O)OCC(CC)CCCC)S(=O)(=O)O.CCN(CC)CCNC(=O)c1ccc(N)cc1` (centres unmarked) [Example 63, Procainamide Docusate] showed a T5%onset of 231 °C.
`CC(=O)Nc1ccc(OC(=O)Cn2cc[n+](C)c2)cc1` [Example 31, 1-(2-(4-acetamidophenoxy)-2-oxoethyl)-3-methyl-1H-imidazol-3-ium Chloride] showed a T5%onset of 200 °C.
Work on `CCCC[P+](CCCC)(CCCC)CC(=O)Oc1ccc(NC(C)=O)cc1` [Example 34, (2-(4-acetamidophenoxy)-2-oxoethyl)tributylphosphonium Chloride] yielded a T5%onset of 197 °C.
`CC(=O)Nc1ccc(OC(=O)C[n+]2ccccc2)cc1` [Example 33, 1-(2-(4-acetamidophenoxy)-2-oxoethyl)pyridinium Chloride] gave a T5%onset of 198 °C.
`CC(C)(Oc1ccc(Cl)cc1)C(=O)O.CN[C@@H](C)[C@H](O)c1ccccc1` [Eph:Clofib 1:1, Ephedrinium Clofibrate] showed a T5%onset of 166 °C.
`CC(C)=CCC/C(C)=C/COC(=O)Cn1cc[n+](C)c1` [Example 43, (E)-1-(2-(3,7-dimethylocta-2,6-dienyloxy)-2-oxoethyl)-3-methyl-1H-imidazol-3-ium Chloride] showed a T5%onset of 125 °C.
Work on `CC(C)Cc1ccc(C(C)C(=O)[O-])cc1.CCCC[P+](CCCC)(CCCC)CCCC` [P(Bu)4Ibu 1:1, Tetrabutylphosphonium Ibuprofenate] yielded a T5%onset of 234 °C.
Work on `CC(=O)Nc1ccc(OC(=O)C[N+]2(C)CCCC2)cc1.CC(O)C(=O)O` [Example 40, 1-(2-(4-acetamidophenoxy)-2-oxoethyl)-1-methylpyrrolidinium Lactate] yielded a T5%onset of 166 °C.
`CCN(CC)CC(=O)Nc1c(C)cccc1C.O=C(O)c1ccccc1O` [Lid:Sal 1:1, Lidocainium Salicylate] gave a T5%onset of 161 °C.
For `CC(C)Cc1ccc(C(C)C(=O)O)cc1.COc1cccc(C2(O)CCCCC2CN(C)C)c1` (racemic) [Example 48, Tramadolium rac-ibuprofenate], the T5%onset was 175 °C.
`CC(=O)Nc1ccc(OC(=O)C[N+]2(C)CCCC2)cc1` [Example 32, 1-(2-(4-acetamidophenoxy)-2-oxoethyl)-1-methylpyrrolidinium Chloride] gave a T5%onset of 197 °C.
`CC(=O)Nc1ccc(OC(=O)C[n+]2ccccc2)cc1` [Example 37, 1-(2-(4-acetamidophenoxy)-2-oxoethyl)pyridinium Docusate] showed a T5%onset of 238 °C.
In the case of Choline Docusate [Example 67], the T5%onset is reported as 189 °C.
Caffeine Salicylate [Example 13] showed a T5%onset of 111 °C.
For `CCN(CC)CCNC(=O)c1ccc(N)cc1.O=C(O)c1ccccc1O` [Example 61, Procainamide Salicylate], the T5%onset was 199 °C.
In the case of `CC(C)=CCC/C(C)=C/COC(=O)Cn1cc[n+](C)c1` [Example 44, (E)-1-(2-(3,7-dimethylocta-2,6-dienyloxy)-2-oxoethyl)-3-methyl-1H-imidazol-3-ium Docusate], the T5%onset is reported as 170 °C.
`CCN(CC)CC(=O)Nc1c(C)cccc1C.COc1cccc(C2(O)CCCCC2CN(C)C)c1.O=C(O)c1ccccc1O` (centres unmarked) [Example 26, Tramadolium-lidocaine Salicylate] gave a T5%onset of 181 °C.
In the case of “Triethanolammonium Ibuprofenate [Example 64]”, the T5%onset is reported as 163 °C.
In the case of `CCCCC(CC)COC(=O)CC(C(=O)OCC(CC)CCCC)S(=O)(=O)[O-].CCCC[P+](CCO)(CCCC)CCCC` (centres unmarked) [Example 66, Tributylhydroxyethylphosphonium Docusate], the T5%onset is reported as 280 °C.

Same assay, conditions: TGA/DSC, 25° C. to 600° C. with 5° C./min under nitrogen; cetylpyridinium salicylate-salicylic acid co-ionic liquids
With `CCCCCCCCCCCCCCCC[n+]1ccccc1` [CetPy:Sal 1:1, Cetylpyridinium Salicylate] the T5%onset was 206 °C.
“Cetylpyridinium Salicylate-salicylic Acid [CetPy:Sal 1:3]” showed a T5%onset of 162 °C.
In the case of “Cetylpyridinium Salicylate-salicylic Acid [CetPy:Sal 1:2]”, the T5%onset is reported as 184 °C.

Same assay, conditions: TGA/DSC, 25° C. to 600° C. with 5° C./min under nitrogen; choline salicylate-salicylic acid co-ionic liquids
`C[N+](C)(C)CCO.O=C([O-])c1ccccc1O` [Cho:Sal 1:1, choline salicylate] gave a T5%onset of 203 °C.

Same assay, conditions: TGA/DSC, 25° C. to 600° C. with 5° C./min under nitrogen; ephedrinium clofibrate co-ionic liquids prepared by melting
For Ephedrinium Clofibrate [Eph:Clofib 1:2], the “Tonset 5%” value was 182 °C.
In the case of `CC(C)(Oc1ccc(Cl)cc1)C(=O)O.CN[C@@H](C)[C@H](O)c1ccccc1.CN[C@@H](C)[C@H](O)c1ccccc1` [Eph:Clofib 2:1, Ephedrinium Clofibrate], the “Tonset 5%” value is reported as 135 °C.
In the case of `CC(C)(Oc1ccc(Cl)cc1)C(=O)O.CN[C@@H](C)[C@H](O)c1ccccc1` [Eph:Clofib 1:1, Ephedrinium Clofibrate], the “Tonset 5%” value is reported as 169 °C.

Same assay, conditions: TGA/DSC, 25° C. to 600° C. with 5° C./min under nitrogen; lidocaine salicylate co-ionic liquids
In the case of `O=C(O)c1ccccc1O` [Salicylic acid, reference compound], the “Tonset 5%” value is reported as 134 °C.
In the case of `CCN(CC)CC(=O)Nc1c(C)cccc1C` [Lid, lidocaine, reference compound], the “Tonset 5%” value is reported as 152 °C.
With Lidocaine Salicylates [Lid:Sal 1.5:1] the “Tonset 5%” value was 169 °C.
With Lidocaine Salicylates [Lid:Sal 1:2] the “Tonset 5%” value was 138 °C.
For Lidocaine Salicylates [Lid:Sal 2.5:1], the “Tonset 5%” value was 137 °C.
In the case of Lidocaine Salicylates [Lid:Sal 2:1], the “Tonset 5%” value is reported as 154 °C.
In the case of Lidocaine Salicylates [Lid:Sal 1:1.5], the “Tonset 5%” value is reported as 142 °C.
In the case of Lidocaine Salicylates [Lid:Sal 3:1], the “Tonset 5%” value is reported as 161 °C.
In the case of Lidocaine Salicylates [Lid:Sal 1:3], the “Tonset 5%” value is reported as 128 °C.
With `CCN(CC)CC(=O)Nc1c(C)cccc1C.O=C(O)c1ccccc1O` [Lid:Sal 1:1, Lidocainium Salicylate] the “Tonset 5%” value was 161 °C.
In the case of Lidocaine Salicylates [Lid:Sal 1:2.5], the “Tonset 5%” value is reported as 132 °C.

Same assay, conditions: TGA/DSC, 25° C. to 600° C. with 5° C./min under nitrogen; tetrabutylphosphonium ibuprofenate-ibuprofenic co-ionic liquids
With `CC(C)Cc1ccc(C(C)C(=O)[O-])cc1.CCCC[P+](CCCC)(CCCC)CCCC` [P(Bu)4Ibu 1:1, Tetrabutylphosphonium Ibuprofenate] the T5%onset was 234 °C.

Same assay, conditions: TGA/DSC, 25° C. to 600° C. with 5° C./min under nitrogen; tetrabutylphosphonium lactate-lactic acid co-ionic liquids
Work on `CCCC[P+](CCCC)(CCCC)CCCC` [P(Bu)4Lac 1:2, Tetrabutylphosphonium Lactate-lactic Acid] yielded a T5%onset of 215.
For `CCCC[P+](CCCC)(CCCC)CCCC` [P(Bu)4Lac 1:1, tetrabutylphosphonium lactate], the T5%onset was 262.

Same assay, conditions: TGA/DSC, 25° C. to 600° C. with 5° C./min under nitrogen; tetrabutylphosphonium salicylate-salicylic acid co-ionic liquids
`O=C(O)c1ccccc1O` [Salicylic acid, reference compound] gave a T5%onset of 136 °C.

Test: Thermocleavage of ionic liquid immobilized fragrance by TGA
Assay type: physicochemical
Settings: TGA (FIG. 6)
With `CC(C)=CCC/C(C)=C/COC(=O)Cn1cc[n+](C)c1` [Example 44, (E)-1-(2-(3,7-dimethylocta-2,6-dienyloxy)-2-oxoethyl)-3-methyl-1H-imidazol-3-ium Docusate] the “Thermocleavage, first decomposition step (release of geraniol)” value was “Mass loss of the first decomposition step obtained corresponds to mass percentage of Geraniol [1] in the prodrug [4]”.
